Reference: patent US7914797B2 (priority 2005, dated 2011)

Target: HLA-A2 on T2 cells (Homo sapiens, UniProt P04439, D140Y/D185E/D98H/E176V/E277Q/G131W/G231S/I119V/I121R/I166T/I218V/L300P/L318F/N151K/N90K/P208A/P217A/Q86G/Q94H/R138H/R169H/T345S)
Assay type: binding

| Sequence | binding of peptide to HLA-A2 on T2 cells |
| --- | --- |
| PKYVKQNTLKLAT [HA 307-319] | some low binding capacity, which was not dose dependent |
| SKAYSNCYPYDVPDYASL [HA 91-108 peptide] | binding capacity only at the higher (100 μM) concentration |
| ELRSRYWAI [NP 380-388] | some low binding capacity, which was not dose dependent |
| LLTEVETYV [M1 3-11] | High and dose dependent binding |
